In patent US12312346B2, “Pyridopyrimidine compounds and methods of their use” (Tufts Medical Center, Inc., priority 2018, dated 2025):
“Also recorded” adds a separate entry of the source.

Key:
[1] = system: CDK6^−/− SVFs (KO-SVFs); assay: Cell number, KO-SVFs; format: cell-based, mouse; details: 6 days; GD 0.1-10 μM
Protocol: FIG. 7B is a bar graph showing the cell numbers of KO-SVFs treated with LEE (10 μM) or compound GD at 0.1, 0.5, 1.0, 5.0, and 10 μM for 6 days. Data shown are mean±S.D. (n=6); *P<0.05 vs its vehicle control, t-test.
(§1) HCl salt of 6-acetyl-5-methyl-2-((4-(piperazin-1-ylmethyl)thiazol-2-yl)amino)pyrido[2,3-d]pyrimidin-7(8H)-one (Compound GD) prepared in Example 1 was examined for its inhibitory activity in cancer cell lines and WT and CDK6^−/− mouse embryonic fibroblasts (MEFs) and stromal vascular fractions (SVFs). MEFs and SVFs are enriched with mesenchymal stem cells (MSC) and pre-adipocytes which can differentiate into a variety of cell types, including adipocytes.

[2] = system: mouse WT-MEFs; assay: Cell cycle and cell number, WT-MEFs; format: cell-based
Protocol: FIG. 6A is a series of charts showing representative cell cycle profiles of mouse WT-MEFs treated with a vehicle (V), PD (0.5 μM), LEE (10 μM), or compound GD at 1, 5, and 10 μM for 6 days.
FIG. 6B is a histogram summarizing the cell cycle distribution in FIG. 6A. Data shown are mean±S.D. (n=6); *P<0.05 vs vehicle control, t-test.
FIG. 6C is a chart showing the percentage of S-G2-M cells in FIG. 6B.
FIG. 6D is a bar graph summarizing the cell number of WT-MEFs treated with PD (0.5 μM), LEE (10 μM), or compound GD at varying doses for 6 days. Data shown are mean±S.D. (n=6); *P<0.05 vs vehicle control, t-test.
as §1

[3] = system: human leukemia cell line PEER (with WT Notch); assay: Cell cycle (PI staining, S-G2-M cells), PEER; format: cell-based
Protocol: FIG. 3A Representative cell cycle profiles of human leukemia cell line PEER (with WT Notch) treated with a vehicle (V) (for palbociclib (PD) or compound GD), PD (0.5 μM), or compound GD at 0.05, 0.5, and 5 μM for 6 days.
FIG. 3B is a histogram summarizing the cell cycle distribution of the PEER cell line in FIG. 3A. Data shown are mean±S.D. (n=6); *P<0.05 vs its vehicle controls, t-test.
FIG. 3C is a chart showing the percentage of S-G2-M cells in FIG. 3B. […]
(§2) Table 2: Experimental Procedures: sensitivity to CDK6 kinase activity inhibition was tested by incubating different cell lines in the presence of CDK6 inhibitor GD007/PBS for either 24 hours for detecting the status of pRB-780 phosphorylation, or 5 days for determining the effect of GD007 on cell proliferation. (1) By immunoblotting (WB), we will detect phospho-pRB-S^780, one of the substrates of CDK6 kinase; (2) By using FACS analysis, we will stain treated cells with Propidium Iodide (PI), a commonly used fluorescent intercalator, to measure the subpopulation of cell cycle to reveal any impact of CDK6 inhibition on cell proliferation; (3) cell numbers will be counted using hemocytometer.

[4] = system: Prostate Cancer: PC-3; assay: pRB-780 immunoblot, PC-3; format: cell-based; details: WB: P-RB-780
Protocol: as §2

[5] = Fat pad mass and body weight of WT mice on normal chow diet; format: in vivo; details: WT (B6) mice, NCD
Protocol: FIGS. 9A and 9B are images showing a close view of the iWAT (FIG. 9A) and eWAT (FIG. 9B) and mass of fat pads from mice treated with GD or PBS, as indicated. The mass of various fat pads was normalized to body weight of mice on NCD at the end of experiments. Data shown are mean±S.D. (n=8 for each group), *p<0.05, t-test, GD vs PBS.
FIG. 9D is a graph showing body weight of age-matched female WT mice on NCD over 27-day observation period. GD/PBS commenced by gavage daily for 21 days at 200 mg/kg/day at age of 6-weeks-old. Body weight shown are mean±S.D. (n=8 for each group), *p<0.05, t-test, GD vs PBS.

[6] = system: phosphorylated pRB at SER-780 in U251 cells; assay: Immunoblot of phosphorylated pRB (SER-780), U251; format: cell-based
Protocol: FIG. 5B is an image of a representative immunoblot showing the levels of phosphorylated pRB at SER-780 in U251 cells following treatment of these cells with a vehicle, PD, or compound GD for 24 hours. Tubulin was used as loading control.
as §2

[7] = system: human lung cancer cell line A549; assay: Cell cycle (PI staining, S-G2-M cells) and pRB immunoblot, A549; format: cell-based
Protocol: FIG. 4A is a series of charts showing representative cell cycle profiles of human lung cancer cell line A549 treated with a vehicle (V) (for palbociclib (PD) or compound GD), PD (0.5 μM), or compound GD at 0.005, 0.05, 0.5, and 5 μM for 6 days.
FIG. 4B is a histogram showing the cell cycle distribution of A549 cell line in FIG. 4A. Data shown are mean±S.D. (n=6); *P<0.05 vs its vehicle controls, t-test.
FIG. 4C is a chart showing the percentage of S-G2-M cells in FIG. 4B. IC50 for compound GD is ca. 0.05 μM.
FIG. […] Tubulin was used as a loading control.
as §2

[8] = system: phosphorylated pRB at SER-780 in U87 cells; assay: Immunoblot of phosphorylated pRB (SER-780), U87; format: cell-based, human
Protocol: FIG. 5C is an image of a representative immunoblot showing the levels of phosphorylated pRB at SER-780 in U87 cells following treatment of these cells with a vehicle, PD, or compound GD for 24 hours. Tubulin was used as loading control.
as §2

[9] = 200 mg/kg/day for 21 days, normalized to body weight

- IC50 ([3]; Homo sapiens, 144 h, PEER, 6 days, read-out: IC50 (percentage of S-G2-M cells, growth inhibition)): ~1.3 µM
- IC50 ([7]; Homo sapiens, 144 h, A549, 6 days, read-out: IC50 (percentage of S-G2-M cells)): ~0.05 µM
Structure (SMILES): CC(=O)c1c(C)c2cnc(Nc3nc(CN4CCNCC4)cs3)nc2[nH]c1=O [Compound GD, 6-acetyl-5-methyl-2-((4-(piperazin-1-ylmethyl)thiazol-2-yl)amino)pyrido[2,3-d]pyrimidin-7(8H)-one]
- proliferation of CDK6−/− SVFs [1]: little effect
- IC50 ([2]; 144 h, mouse WT-MEF, 6 days, read-out: IC50 (proliferation, percentage of S-G2-M cells)): ~1.2 µM
- fraction of dead cells (effect on cell viability) relative to PD ([2]; WT-MEFs, FIG. 6B, GD 10 μM vs PD 0.5 μM): smaller
- Compound GD Efficacy ([3]; Leukemic cells: PEER, PI Staining, and cell number counting): Efficacious
- Compound GD Efficacy [4]: No
- body weight, most significant reduction compared to PBS treated mice ([5]; 200 mg/kg/day): 7.1 % reduction
- fat pad mass vs PBS-treated mice ([5]; 200 mg/kg/day by gavage for 21 days, 200 mg/kg/day): dramatically and significantly decreased; also recorded: reduced fat mass
- fat pad mass, eWAT, reduction vs PBS-treated mice [5, 9]: ~2.0 fold reduction
- fat pad mass, iWAT, reduction vs PBS-treated mice [5, 9]: ~1.42 fold reduction
- Compound GD Efficacy ([6]; Brain Tumor: U251, WB: P-RB-780): Efficacious
- pRB phosphorylation ([6]; glioblastoma cell line U251, 24 hours): inhibits pRB phosphorylation
- growth of lung cancer cell line A549 ([7]; FIGS. 4A-4D): inhibits growth
- Compound GD Efficacy ([7]; Lung Cancer: A549, WB: P-RB-780, PI staining): Efficacious
- Compound GD Efficacy ([8]; Brain Tumor: U87 human primary glioblastoma cell line, WB: P-RB-780): Efficacious
- pRB phosphorylation ([8]; glioblastoma cell line U87, 24 hours): inhibits pRB phosphorylation
